Where two headings read alike, the source gives them in different places.
Experiments:
[1] = target: GDP-bound KRAS protein (aa 1-169), containing both G12C and C118A amino acid substitutions (Homo sapiens, UniProt P01116, C118A/G12C); assay: Coupled nucleotide exchange assay (SOS-mediated, AlphaScreen); format: biochemical; conditions: for Coupled exchange IC50 (5 min): 5 min compound pre-incubation
[2] = tested on: Phosphorylation of ERK1/2 in MIA PaCa-2 cells; assay: Phospho-ERK1/2 MSD assay in MIA PaCa-2 cells; format: cell-based
Procedure, shortened: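 IC50 comes from a 4-parameter logistic fit of MSD phospho-ERK1/2 signal in lysates. Before lysis, MIA PaCa-2 or A549 cells were exposed to titrated compound for 2 or 4 h at 37 °C, followed by a 10 min 10 ng/mL EGF stimulus.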

[3] = Homo sapiens, MIA PaCa-2, 2 h, read-out: p-ERK IC50 (2 h; MIA PaCa-2), 2 h compound treatment
[4] = read-out: p-ERK IC50 (2 h; MIA PaCa-2), 2 h compound treatment

Chain of GDP-bound KRAS protein (aa 1-169), containing both G12C and C118A amino acid substitutions (P01116 1-169 isoform P01116-2 G12C/C118A): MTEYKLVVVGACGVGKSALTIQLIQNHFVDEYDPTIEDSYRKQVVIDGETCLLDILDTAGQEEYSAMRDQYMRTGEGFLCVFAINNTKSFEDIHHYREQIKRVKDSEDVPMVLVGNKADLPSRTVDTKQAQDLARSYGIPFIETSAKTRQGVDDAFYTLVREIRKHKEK

Coupled exchange IC50 (5 min) [1]	IC50 [2, 3] [nM]	IC50 [2, 4] [nM]	Coupled exchange IC50 (2 h) ([1]; 2 h compound pre-incubation) [nM]	IC50 ([2]; read-out: p-ERK IC50 (4 h; MIA PaCa-2), 4 h compound treatment) [nM]	SMILES
0.026 | nda μM	10	–	–	–	C=CC(=O)N1C[C@H](C)N(c2nc(=O)n(-c3c(C)ccnc3C(C)C)c3nc(-c4ccccc4F)c(Cl)cc23)[C@@H](C)C1 (single isomer, unassigned) [Example 78-8]
0.515 | nda μM	348	–	–	–	C=CC(=O)N1CCN(c2nc(=O)n(-c3c(C)ccnc3C(C)C)c3nc(-c4ccccc4F)c(Cl)cc23)C(C(F)(F)F)C1 (single isomer, unassigned) [Example 78-9, (M)-6-chloro-7-(2-fluorophenyl)-1-(4-methyl-2-(2-propanyl)-3-pyridinyl)-4-(4-(2-propenoyl)-2-(trifluoromethyl)-1-piperazinyl)pyrido[2,3-d]pyrimidin-2(1H)-one]
0.133 | nda μM	81	–	–	–	C=CC(=O)N1CCN(c2nc(=O)n(-c3c(C)ccnc3C(C)C)c3nc(-c4ccccc4F)c(Cl)cc23)[C@@H](CO)C1 (single isomer, unassigned) [Example 78-14]
0.124 | nda μM	61	–	–	–	C=CC(=O)N1CCN(c2nc(=O)n(-c3c(C)ccnc3C(C)C)c3nc(-c4ccccc4F)c(Cl)cc23)CC1 (single isomer, unassigned) [Example 78-15, (M)-6-chloro-7-(2-fluorophenyl)-1-(4-methyl-2-(2-propanyl)-3-pyridinyl)-4-(4-(2-propenoyl)-1-piperazinyl)pyrido[2,3-d]pyrimidin-2(1H)-one]
0.044 | nda μM	–	29	–	–	C=CC(=O)N1CCN(c2nc(=O)n(-c3c(C)cc(CN(C)C)cc3C(C)C)c3nc(-c4ccccc4F)c(Cl)cc23)[C@@H](C)C1 (single isomer, unassigned) [Example 80-1-1]
0.556 | nda μM	–	236	–	–	C=CC(=O)N1CCN(c2nc(=O)n(-c3c(C)cc(CN(C)C)cc3C(C)C)c3nc(-c4ccccc4F)c(Cl)cc23)[C@@H](C)C1 (single isomer, unassigned) [Example 80-1-2]
0.048 | nda μM	47	–	–	–	C=CC(=O)N1CCN(c2nc(=O)n(-c3c(C)cc(CO)cc3C(C)C)c3nc(-c4ccccc4F)c(Cl)cc23)[C@@H](C)C1 (single isomer, unassigned) [Example 80-2-2]
0.096 | nda μM	239	–	–	–	C=CC(=O)N1CCN(c2nc(=O)n(-c3c(C)ccnc3C(C)C)c3nc(-c4c(F)ccc5[nH]ncc45)c(Cl)cc23)[C@@H](C)C1 (single isomer, unassigned) [Example 82-2]
0.035 | nda μM	84	–	–	–	C=CC(=O)N1CCN(c2nc(=O)n(-c3c(C(C)C)ncc(O)c3C)c3nc(-c4ccccc4F)c(Cl)cc23)[C@@H](C)C1 (single isomer, unassigned) [Example 83-2]
0.058 | nda μM	43	–	–	–	C=CC(=O)N1CCN(c2nc(=O)n(-c3c(CO)ccnc3C(C)C)c3nc(-c4ccccc4F)c(Cl)cc23)[C@@H](C)C1 (single isomer, unassigned) [Example 84-2]
0.151 µM	–	–	175	111	C=CC(=O)N1CCN(c2nc(=O)n(-c3ccccc3C(C)C)c3c(C)c(-c4c(O)cccc4F)c(Cl)cc23)[C@@H](C)C1 (single isomer, unassigned) [Example 90-2]
0.193 | nda μM	155	–	–	–	C=CC(=O)N1CCN(c2nc(=O)n(-c3ccccc3C(C)C)c3nc(-c4c(F)cccc4C#N)c(Cl)cc23)[C@@H](C)C1 (single isomer, unassigned) [Example 98-1]
0.182 | nda μM	211	–	–	–	C=CC(=O)N1CCN(c2nc(=O)n(-c3c(C)cccc3C(C)C)c3nc(-c4ccccc4F)c(C)cc23)[C@@H](C)C1 (single isomer, unassigned) [Example 102-2]
0.071 | nda μM	247	–	–	–	C=CC(=O)N1CCN(c2nc(=O)n(-c3ccccc3C(C)C)c3cc(-c4ccccc4F)c(Cl)nc23)[C@@H](C)C1 (single isomer, unassigned) [Example 110-2]
0.073 | nda μM	47	–	–	–	C=CC(=O)N1CCN(c2nc(=O)n(-c3c(C(C)C)ncnc3N(C)C)c3nc(-c4ccccc4F)c(Cl)cc23)[C@@H](C)C1 (single isomer, unassigned) [Example 140-1]
0.029 | nda μM	29	–	–	–	C=CC(=O)N1CCN(c2nc(=O)n(-c3c(C(N)=O)cccc3C(C)C)c3nc(-c4ccccc4F)c(Cl)cc23)[C@@H](C)C1 (single isomer, unassigned) [Example 142-2]
2.72 | nda μM	–	3540	–	–	C=CC(=O)N1CCN(c2nc(=O)n(-c3c(C)ccnc3C(C)C)c3nc(-c4ccccc4F)c(C)nc23)[C@@H](C)C1 (single isomer, unassigned) [Example 143-1]
2.43 | nda μM	–	397	–	–	C=CC(=O)N1CCN(c2nc(=O)n(-c3c(C)ccnc3C(C)C)c3nc(-c4ccccc4F)c(C)nc23)[C@@H](C)C1 (single isomer, unassigned) [Example 143-2]
0.038 | nda μM	43	–	–	–	C=CC(=O)N1CCN(c2nc(=O)n(-c3c(N)cccc3C(C)C)c3nc(-c4ccccc4F)c(Cl)cc23)[C@@H](C)C1 (single isomer, unassigned) [Example 155-1]
0.947 | nda μM	999	–	–	–	C=CC(=O)N1CCN(c2nc(=O)n(-c3c(C)cccc3C(C)C)c3nc(-c4c(C)ccc5[nH]ncc45)c(F)cc23)[C@@H](C)C1 [68-2, 6-fluoro-7-(5-methyl-1H-indazol-4-yl)-1-(2-methyl-6-(2-propanyl)phenyl)-4-((2S)-2-methyl-4-(2-propenoyl)-1-piperazinyl)pyrido[2,3-d]pyrimidin-2(1H)-one]
0.11 | nda μM	97	–	–	–	C=CC(=O)N1CCN(c2nc(=O)n(-c3c(C)cc(CO)cc3C(C)C)c3nc(-c4ccccc4F)c(Cl)cc23)[C@@H](C)C1 [80-2, 6-chloro-7-(2-fluorophenyl)-1-(4-(hydroxymethyl)-2-methyl-6-(2-propanyl)phenyl)-4-((2S)-2-methyl-4-(2-propenoyl)-1-piperazinyl) pyrido[2,3-d] pyrimidin-2(1H)-one]
0.564 | nda μM	347	–	–	–	C=CC(=O)N1CCN(c2nc(=O)n(-c3ncccc3CC)c3nc(-c4ccccc4F)c(Cl)cc23)[C@@H](C)C1 [Example 54-15, 6-chloro-1-(3-ethyl-2~ pyridinyl)-7-(2-fluorophenyl)-4-((2S)-2-methyl-4-(2-propenoyl)-1-piperazinyl) pyrido[2,3-d]pyrimidin-2(1H)-one]
0.149 | nda μM	149	–	–	–	C=CC(=O)N1CCN(c2nc(=O)n(-c3ncccc3CC)c3nc(-c4c(O)cccc4F)c(Cl)cc23)[C@@H](C)C1 [Example 54-16, 6-chloro-1-(3-ethyl-2-pyridinyl)-7-(2-fluoro-6-hydroxyphenyl)-4-((2S)-2-methyl-4-(2-propenoyl)-1-piperazinyl) pyrido[2,3-d]pyrimidin-2(1H)-one]
